Structures can show the parent of a compound that is named as a salt.
Legend:
Assay type in all cases: in vivo
[1] = test system: Geranium dissectum; assay: Pre-emergence herbicidal action, pot trial/greenhouse (Example 5.3, Table 6); conditions: 672 h, read-out: Herbicidal action [%] against Geranium dissectum; for pest or weed control at 50 g/ha: 50 g of AS/ha
Text: (§1) Seeds or rhizome pieces of monocotyledonous and dicotyledonous harmful plants are placed in sandy loam in pots and covered with soil. The compositions, formulated as concentrated aqueous solutions, wettable powders or emulsion concentrates, are then applied to the surface of the covering soil as an aqueous solution, suspension or emulsion at an application rate of 300 to 800I of water/ha (converted) in a variety of dosages. After the treatment, the pots are placed in a green-house and kept under good growth conditions for the weeds. Visual scoring of plant or emergence damage is carried out after the test plants have emerged after an experimental period of 3 to 4 weeks in comparison with untreated controls.
(§2) The herbicidal efficacy of the active compounds or active compound mixtures was scored visually by comparing the treated pots (soil) with untreated controls. The damage and development of all above-ground plant parts was recorded. Scoring was done on a percentage scale (example values: 100% action=all plants dead or not emerged; 50% action=50% of the plants and green plant parts dead or not emerged; 0% action=no discernible action=like control plot). The score figures of in any case 2 repetitions (pots) were averaged.
(§3) When the data observed already exceed the formal total of the data in the experiments with individual applications, they likewise exceed the expected value according to Colby, which is calculated using the formula below and is likewise regarded as an indication of synergism (cf. S. R. Colby; in Weeds 15 (1967) pp. 20 to 22): E=A+B−(A·B/100)
(§4) In this formula: • A=action of active compound (A) in % at an application rate of a g of AS/ha; • B=action of active compound (B) in % at an application rate of b g of AS/ha; • E=expected value of the action of the combination (A)+(B) in % at the combined application rate a+b g of AS/ha.
(§5) The following abbreviations are used in the description and the tables below: • g of AS/ha=grams of active substance (=100% active compound) per hectare; • the total of the activities of the individual applications is given as E^A; • the expected values according to Colby are in each case given as E^C; Example 5.1
(§6) Certain combinations were tested for their herbicidal activity in accordance with the general example 1 (pre-emergence method).

[2] = test system: Ipomoea hederifolia; assay: Pre-emergence herbicidal action, pot trials/greenhouse (Example 5.1, Table 4); conditions: evaluation 27 days after treatment
Text: as §1, §2, §3, §4, §5, §6

[3] = test system: Erodium cicutarium; assay: Pre-emergence herbicidal action, pot trials/greenhouse (Example 5.2, Table 5); conditions: evaluation 28 days after treatment
Text: as §1, §2, §3, §4, §5, §6

[4] = pot trial/greenhouse, evaluation 28 days after treatment

## CCOC1Oc2ccc(OS(C)(=O)=O)cc2C1(C)C (racemic) [(B2.5), (RS)—O-(2-ethoxy-2,3-dihydro-3,3-dimethylbenzofuran-5-yl)methanesulfonate]
[1]; 300 g of AS/ha, pot trial/greenhouse, evaluation 28 days after treatment
  pest or weed control at 300 g/ha: 35%

## Cc1ccc2c(c1)[C@H](Nc1nc(N)nc([C@@H](C)F)n1)[C@@H](C)C2 [(A21), 2-amino-4-[(1R,2S)-2,6-dimethyl-indan-1-ylamino]-6-[(1R)-1-fluoroethyl]-1,3,5-triazine]
[2]; 0.2 g of AS/ha
  Herbicidal action [%] against Ipomoea hederifolia: 0%
[2]; 0.5 g of AS/ha
  Herbicidal action [%] against Ipomoea hederifolia: 45%
[3]; 0.2 g of AS/ha
  Herbicidal action [%] against Erodium cicutarium: 0%
[3]; 0.8 g of AS/ha
  Herbicidal action [%] against Erodium cicutarium: 25%
[1]; 0.3 g of AS/ha, pot trial/greenhouse, evaluation 28 days after treatment
  pest or weed control at 0.3 g/ha: 5%
[1]; 1.2 g of AS/ha, pot trial/greenhouse, evaluation 28 days after treatment
  pest or weed control at 1.2 g/ha: 20%

## COC(=O)c1csc(C)c1S(=O)(=O)NC(=O)n1nc(OC)n(C)c1=O [(B1.1.2), methyl 4-[(4,5-dihydro-3-methoxy-4-methyl-5-oxo-1H-1,2,4-triazol-1-yl)carbonylsulfamoyl]-5-methylthiophene-3-carboxylate]
[2]; 0.5 g of AS/ha
  Herbicidal action [%] against Ipomoea hederifolia: 5%
[2]; 2.0 g of AS/ha
  Herbicidal action [%] against Ipomoea hederifolia: 50%

## CS(=O)(=O)c1ccc(C(=O)C2C(=O)CCCC2=O)c(Cl)c1COCC(F)(F)F [(B1.2.1), 2-{2-chloro-4-mesyl-3-[(2,2,2-trifluoroethoxy)methyl]benzoyl}cyclohexane-1,3-dione]
[3]; 50 g of AS/ha
  Herbicidal action [%] against Erodium cicutarium: 30%

## CCOC(=O)COc1ncccc1Oc1cc(-n2c(=O)cc(C(F)(F)F)n(C)c2=O)c(F)cc1Cl [(B1.3), ethyl [[3-[2-chloro-5-[3,6-dihydro-3-methyl-2,6-dioxo-4-(trifluoromethyl)-1(2H)-pyrimidinyl]-4-fluorophenoxy]-2-pyridinyl]oxy]acetate]
[3]; 15 g of AS/ha
  Herbicidal action [%] against Erodium cicutarium: 65%

## COc1cc(OC)n2nc(NS(=O)(=O)c3c(C(F)(F)F)ccnc3OC)nc2n1 [(B1.4.1), N-(5,7-dimethoxy[1,2,4]triazolo[1,5-a]pyrimidin-2-yl)-2-methoxy-4-(trifluoromethyl)pyridine-3-sulfonamide]
[3]; 5 g of AS/ha
  Herbicidal action [%] against Erodium cicutarium: 50%

## COCCOCc1nc(C(F)(F)F)ccc1C(=O)C1=C(O)C2CCC(C2)C1=O (stereo not shown) [(B1.6.1), 4-hydroxy-3-[[2-[(2-methoxyethoxy)methyl]-6-trifluoromethyl-3-pyridinyl]carbonyl]-bicyclo[3.2.1]oct-3-en-2-one]
[3]; 30 g of AS/ha
  Herbicidal action [%] against Erodium cicutarium: 55%

## Cc1nn(C)c(O)c1C(=O)c1ccc(C(F)(F)F)cc1S(C)(=O)=O [(B2.1.1), (5-hydroxy-1,3-dimethyl-1H-pyrazol-4-yl)-[2-(methylsulfonyl)-4-(trifluoromethyl)-phenyl]methanone]
[1]; 30 g of AS/ha, pot trial/greenhouse, evaluation 28 days after treatment
  pest or weed control at 30 g/ha: 20%

## COc1cc(OC)nc(NC(=O)NS(=O)(=O)c2ncccc2OCC(F)(F)F)n1 [(B2.2.2), 1-(4,6-dimethoxypyrimidin-2-yl)-3-[3-(2,2,2-trifluoroethoxy)-2-pyridylsulfonyl]urea sodium salt]
[1]
  pest or weed control at 25 g/ha: 45%

## CC(C)N(C)S(=O)(=O)NC(=O)c1cc(-n2c(=O)cc(C(F)(F)F)n(C)c2=O)c(F)cc1Cl [(B2.3.1), 2-chloro-5-[3,6-dihydro-3-methyl-2,6-dioxo-4-(trifluoromethyl)-1 (2H)-pyrimidinyl]-4-fluoro-N-[[methyl(1-methylethyl)amino]sulfonyl]benzamide]
[1]; [4]
  pest or weed control at 50 g/ha: 65%

## Nc1cc(Cl)nc(C(=O)O)c1Cl [(B2.4.1), 4-amino-3,6-dichloropyridine-2-carboxylic acid]
[1]; 75 g of AS/ha, pot trial/greenhouse, evaluation 28 days after treatment
  pest or weed control at 75 g/ha: 50%

## Nc1nc(C2CC2)nc(C(=O)O)c1Cl [(B2.6.1), 6-amino-5-chloro-2-cyclopropylpyrimidine-4-carboxylic acid]
[1]; 100 g of AS/ha, pot trial/greenhouse, evaluation 28 days after treatment
  pest or weed control at 100 g/ha: 65%

## Cn1nc(C(F)(F)F)c(CS(=O)(=O)C2=NOC(C)(C)C2)c1OC(F)F [(B3.1), 3-[5-(difluoromethoxy)-1-methyl-3-(trifluoromethyl)pyrazol-4-ylmethylsulfonyl]-4,5-dihydro-5,5-dimethyl-1,2-oxazole]
[1]; [4]
  pest or weed control at 50 g/ha: 50%
